Experimental data reported in patent US5236815A, “Class of masked stabilizers in photographic materials or developing solutions” (priority 1991, dated 1993).
Structures can show the parent of a compound that is named as a salt. Where two headings read alike, the source gives them in different places.

Assays:
[1] = for solubility at room temperature: water
[2] = alcoholic solution of 5-nitroindazole vs aqueous solution of I-2; in words
Protocol: A control composition (A) containing 100 g of inert gelatin in 1600 ml of water was prepared. The solution further contained matting agents and anti-halo dyes. In a second control composition (8) 300 ml of water was replaced by 300 ml of a 1% alcoholic solution of 5-nitroindazole. […] In each sample pH was adjusted to 6.5.

[3] = assay type: physicochemical; details: pH 11.5
Protocol: To said basic composition were added 0.46 mmole/l of water soluble 5-nitroindazole precursors according to the invention as specified in table 1 below. In a comparison developer 0.46 mmole of 5-nitroindazole (5-NI) was added per liter. […] Therefore a second comparison developer sample was included in which 5-nitroindazole was first dissolved in 30 ml of N-methyl-pyrrolidone (part B) and then added to the solution, replacing 30 ml of water. In each sample the pH was readjusted to 11.5 with sodium hydroxide.

| instability problems in gelatineous compositions [2] | solubility at room temperature [1] [g/100 ml] | Compound | further results |
| --- | --- | --- | --- |
| can be overcome |  | O=C(c1ccccc1S(=O)(=O)[O-])n1ncc2cc([N+](=O)[O-])ccc21.[K+] | solubility at room temperature ([1]; room temperature): 1.7 g/100 ml |
|  | 1.3 | c1ccc2[nH]nnc2c1 [benzotriazole] |  |
|  | 5.8 | O=C(c1ccccc1S(=O)(=O)O)n1nnc2ccccc21 [Compound I-3, 1-(2-sulphonatobenzoyl)-benzotriazole triethylamine salt] |  |
|  |  | Cc1ccc2[nH]nnc2c1 [5-methylbenzotriazole] | solubility in water ([1]; background section, no temperature given): 0.5 g/100 ml of water |
| instability problems |  | O=[N+]([O-])c1ccc2[nH]ncc2c1 [5-nitroindazole] | solubility in water [1]: 0.02 g/100 ml of water; solubility in developer solution [3]: only slightly soluble |
